Test results: patent US20030175810A1, “Assay method and system for identification of P2Y receptor agonists and antagonists” (priority 2000, published 2003)

Assays:
[1] = target: T1, P2Y1 receptor (Homo sapiens, UniProt P47900); experiment: steady state GTP hydrolysis by purified P2Y1-R reconstituted with Gα11 and Gβ1γ2 in proteoliposomes; type: biochemical
T1 construct: hexahistidine; made in house; host or cells: baculovirus / Sf9 insect cells are named only as a preferred embodiment
Procedure: Purified human P2Y1-R, Gα11, and Gβ1y2 were reconstituted in phospholipid vesicles.
In a glass tube, the following lipid solutions, which are made by solubilizing the lipids in chloroform, are combined: 11 μl PE (10 mg/ml), 7 μl PS (10 mg/ml), 4 μl cholesteryl hemisuccinate (2 mM). The mixture is dried under a stream of N2 or argon to prevent oxidation. The lipids are then dissolved in a buffer containing deoxycholate at 0.4% and sonicated to ensure complete solubilization. Proteins are added sequentially: 50 pmol of the appropriate G protein α subunit, 150 pmol Gβγ and 15 pmol of P2Y receptor. The mixture is passed over a sizing column to isolate the vesicles from the single components and the detergent. Isolated vesicles can then used for the GTP hydrolysis assays for which they can be diluted depending on their quality.
(§1) In a steady state embodiment of the present invention, vesicles are combined with agonists, GAP proteins γ-[^32P] labeled GTP, all in an appropriate buffer system. The assay is then incubated at between 20° C. and 30° C. for various times. P2Y receptor-promoted activity is measured as released ^32P, which is separated from [γ-^32P]GTP after the assay is halted by transfer to ice and addition of ice cold 5% slurry or activated charcoal in 20 mM phosphoric acid. See Biddlecome et al., J. Biol. Chem. 271: 7999-8007.
The P2Y1 receptor was expressed, purified and reconstituted into vesicles as described herein. GTP hydrolysis was measured by incubation of vesicles with 2 μM [γ^32P]GTP and quantitation of released [^32P]Pi.

[2] = tested on: P2Y1 receptor/Gαq/β1γ2 vesicles; experiment: promotion of 2MeSADP-stimulated GTPase activity of P2Y1 receptor/Gαq/β1γ2 vesicles; type: biochemical; settings: 1 μM 2MeSADP, FIG. 4 and 5
Procedure: Purified P2Y1-R was reconstituted with Gαq and Gβ1y2.
FIG. 5 is a line graph depicting promotion of 2MeSADP-stimulated GTP hydrolysis by phospholipase C-β1. P2Y1-R was reconstituted with Gαq and Gβ1y2.
as §1
The selectivity of the P2Y1 receptor for coupling to various G proteins, and the selectivity of RGS proteins and phospholipase C-β isoenzymes for promoting GTPase activities were studied.

T1 sequence (P47900 whole entry): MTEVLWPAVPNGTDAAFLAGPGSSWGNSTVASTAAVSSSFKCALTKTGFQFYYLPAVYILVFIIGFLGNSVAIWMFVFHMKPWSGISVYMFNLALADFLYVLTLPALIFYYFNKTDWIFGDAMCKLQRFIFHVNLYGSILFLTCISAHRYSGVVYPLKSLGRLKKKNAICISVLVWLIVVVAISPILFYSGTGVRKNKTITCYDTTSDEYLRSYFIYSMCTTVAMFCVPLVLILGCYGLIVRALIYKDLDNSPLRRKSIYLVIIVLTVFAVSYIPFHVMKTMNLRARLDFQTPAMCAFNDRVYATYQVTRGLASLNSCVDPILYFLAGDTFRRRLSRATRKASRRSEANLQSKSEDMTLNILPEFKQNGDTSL

Molecule: 2-methylthioadenosine 5′-diphosphate [2MeSADP]
- stimulation of GTPase activity over basal ([1]; agonist together with RGS4, FIG. 2A): up to 100 fold
- EC70 concentration of agonist ([1]; concentration used to identify antagonists): approximately 50 nM
- hydrolysis of GTP on addition of agonist ([1]; in the presence of RGS4, FIG. 1): marked increase

Molecule: Nc1ncnc2c1ncn2[C@@H]1O[C@H](COP(=O)(O)OP(=O)(O)OP(=O)(O)O)[C@@H](O)[C@H]1O [ATP, adenosine 5′-triphosphate]
- agonist versus antagonist nature at the P2Y1 receptor ([1]; in the absence of receptor reserve): pure antagonist

B1: Phospholipase C-β1: phospholipase C-β isoenzyme stimulating GTPase activity of Gαq (protein, UniProt Q9NQ66 1-1216, looked up)
1-phosphatidylinositol …: MAGAQPGVHALQLKPVCVSDSLKKGTKFVKWDDDSTIVTPIILRTDPQGFFFYWTDQNKETELLDLSLVKDARCGRHAKAPKDPKLRELLDVGNIGRLEQRMITVVYGPDLVNISHLNLVAFQEEVAKEWTNEVFSLATNLLAQNMSRDAFLEKAYTKLKLQVTPEGRIPLKNIYRLFSADRKRVETALEACSLPSSRNDSIPQEDFTPEVYRVFLNNLCPRPEIDNIFSEFGAKSKPYLTVDQMMDFINLKQRDPRLNEILYPPLKQEQVQVLIEKYEPNNSLARKGQISVDGFMRYLSGEENGVVSPEKLDLNEDMSQPLSHYFINSSHNTYLTAGQLAGNSSVEMYRQVLLSGCRCVELDCWKGRTAEEEPVITHGFTMTTEISFKEVIEAIAECAFKTSPFPILLSFENHVDSPKQQAKMAEYCRLIFGDALLMEPLEKYPLESGVPLPSPMDLMYKILVKNKKKSHKSSEGSGKKKLSEQASNTYSDSSSMFEPSSPGAGEADTESDDDDDDDDCKKSSMDEGTAGSEAMATEEMSNLVNYIQPVKFESFEISKKRNKSFEMSSFVETKGLEQLTKSPVEFVEYNKMQLSRIYPKGTRVDSSNYMPQLFWNAGCQMVALNFQTMDLAMQINMGMYEYNGKSGYRLKPEFMRRPDKHFDPFTEGIVDGIVANTLSVKIISGQFLSDKKVGTYVEVDMFGLPVDTRRKAFKTKTSQGNAVNPVWEEEPIVFKKVVLPTLACLRIAVYEEGGKFIGHRILPVQAIRPGYHYICLRNERNQPLTLPAVFVYIEVKDYVPDTYADVIEALSNPIRYVNLMEQRAKQLAALTLEDEEEVKKEADPGETPSEAPSEARTTPAENGVNHTTTLTPKPPSQALHSQPAPGSVKAPAKTEDLIQSVLTEVEAQTIEELKQQKSFVKLQKKHYKEMKDLVKRHHKKTTDLIKEHTTKYNEIQNDYLRRRAALEKSAKKDSKKKSEPSSPDHGSSTIEQDLAALDAEMTQKLIDLKDKQQQQLLNLRQEQYYSEKYQKREHIKLLIQKLTDVAEECQNNQLKKLKEICEKEKKELKKKMDKKRQEKITEAKSKDKSQMEEEKTEMIRSYIQEVVQYIKRLEEAQSKRQEKLVEKHKEIRQQILDEKPKLQVELEQEYQDKFKRLPLEILEFVQEAMKGKISEDSNHGSAPLSLSSDPGKVNHKTPSSEELGGDIPGKEFDTPL
- promotion of GTPase activity (potency and efficacy in words) [2]: potent and efficacious stimulator
